# According to US9969694B2, “N-(arylalkyl)-N′-pyrazolyl-urea, thiourea, guanidine and cyanoguanidine compounds as TrkA kinase inhibitors” (Array BioPharma Inc., priority 2012, dated 2018):
# How the values were obtained:
# Assay in all cases: Off-Target Kinase Profiling
# Format in all cases: biochemical
# Conditions in all cases: 10 μM; ATP near Km
# AURKA = biological target: T1, AURKA (Homo sapiens, UniProt O14965)
# T1 construct: purchased Millipore (KinaseProfiler service)
# Experimental: (§1) Representative compounds of the invention (Examples 33 and 10) were tested for off-target kinase activity at a concentration of 10 μM by Millipore, Inc. in their KinaseProfiler™ service against all the kinases available in their full kinase panel. Compounds were run in duplicate at a concentration of ATP near the Km for each individual kinase according to Millipore's specifications. The results are shown in Table B. Data are reported as percent of control (POC) and are the average of the two replicates.
# Axl = biological target: T2, Axl (Homo sapiens, UniProt P30530)
# T2 construct: purchased Millipore (KinaseProfiler service)
# Experimental: as §1
# BrSK1 = biological target: T3, BrSK1 (Homo sapiens, UniProt Q8TDC3)
# T3 construct: purchased Millipore (KinaseProfiler service)
# Experimental: as §1
# CAMK1 = biological target: T4, CAMK1 (Homo sapiens, UniProt Q14012)
# T4 construct: purchased Millipore (KinaseProfiler service)
# Experimental: as §1
# CAMK2b = biological target: T5, CAMK2b (Homo sapiens, UniProt Q13554)
# T5 construct: purchased Millipore (KinaseProfiler service)
# Experimental: as §1
# CDK6/cyclinD3 = biological target: T6, CDK6/cyclinD3 (Homo sapiens, UniProt Q00534)
# T6 construct: purchased Millipore, Inc. (KinaseProfiler service)
# Experimental: as §1
# CDK9/cyclinT1 = biological target: T7, CDK9/cyclinT1 (Homo sapiens, UniProt P50750)
# T7 construct: purchased Millipore, Inc. (KinaseProfiler service)
# Experimental: as §1
# CHK2 = biological target: T8, CHK2 (Homo sapiens, UniProt O96017)
# T8 construct: purchased Millipore, Inc. (KinaseProfiler service)
# Experimental: as §1
# CK1gamma1 = biological target: T9, CK1gamma1 (Homo sapiens, UniProt Q9HCP0)
# T9 construct: purchased Millipore, Inc. (KinaseProfiler service)
# Experimental: as §1
# CK2 = biological target: T10, CK2 (Homo sapiens, UniProt P68400)
# T10 construct: purchased Millipore, Inc. (KinaseProfiler service)
# Experimental: as §1
# CK2alpha2 = biological target: T11, CK2alpha2 (Homo sapiens, UniProt P19784)
# T11 construct: purchased Millipore, Inc. (KinaseProfiler service)
# Experimental: as §1
# CLK2 = biological target: T12, CLK2 (Homo sapiens, UniProt P49760)
# T12 construct: purchased Millipore, Inc. (KinaseProfiler service)
# Experimental: as §1
# CLK3 = biological target: T13, CLK3 (Homo sapiens, UniProt P49761)
# T13 construct: purchased Millipore, Inc. (KinaseProfiler service)
# Experimental: as §1
# DAPK3 = biological target: T14, DAPK3 (Homo sapiens, UniProt O43293)
# T14 construct: purchased Millipore, Inc. (KinaseProfiler service)
# Experimental: as §1
# ERK2 = biological target: T15, ERK2 (Homo sapiens, UniProt P28482)
# T15 construct: purchased Millipore, Inc. (KinaseProfiler service)
# Experimental: as §1
# EphA4 = biological target: T16, EphA4 (Homo sapiens, UniProt P54764)
# T16 construct: purchased Millipore, Inc. (KinaseProfiler service)
# Experimental: as §1
# EphB1 = biological target: T17, EphB1 (Homo sapiens, UniProt P54762)
# T17 construct: purchased Millipore, Inc. (KinaseProfiler service)
# Experimental: as §1
# FGFR2 = biological target: T18, FGFR2 (Homo sapiens, UniProt P21802)
# T18 construct: purchased Millipore, Inc. (KinaseProfiler service)
# Experimental: as §1
# FGFR3 = biological target: T19, FGFR3 (Homo sapiens, UniProt P22607)
# T19 construct: purchased Millipore, Inc. (KinaseProfiler service)
# Experimental: as §1
# GSK3beta = biological target: T20, GSK3beta (Homo sapiens, UniProt P49841)
# T20 construct: purchased Millipore, Inc. (KinaseProfiler service)
# Experimental: as §1
# IR = biological target: T21, IR (Homo sapiens, UniProt P06213)
# T21 construct: purchased Millipore, Inc. (KinaseProfiler service)
# Experimental: as §1
# IR Activated = biological target: T22, IR Activated (Homo sapiens, UniProt P06213)
# T22 construct: purchased Millipore, Inc. (KinaseProfiler service)
# Experimental: as §1
# JAK2 = biological target: T23, JAK2 (Homo sapiens, UniProt O60674)
# T23 construct: purchased Millipore, Inc. (KinaseProfiler service)
# Experimental: as §1
# JNK1alpha1 = biological target: T24, JNK1alpha1 (Homo sapiens, UniProt P45983)
# T24 construct: purchased Millipore, Inc. (KinaseProfiler service)
# Experimental: as §1
# MAPKAP-K3 = biological target: T25, MAPKAP-K3 (Homo sapiens, UniProt Q16644)
# T25 construct: purchased Millipore, Inc. (KinaseProfiler service)
# Experimental: as §1
# MAPKAP-K5 = biological target: T26, MAPKAP-K5 (Homo sapiens, UniProt Q8IW41)
# T26 construct: purchased Millipore, Inc. (KinaseProfiler service)
# Experimental: as §1
# MKNK2 = biological target: T27, MKNK2 (Homo sapiens, UniProt Q9HBH9)
# T27 construct: purchased Millipore, Inc. (KinaseProfiler service)
# Experimental: as §1
# Mer = biological target: T28, Mer (Homo sapiens, UniProt Q12866)
# T28 construct: purchased Millipore, Inc. (KinaseProfiler service)
# Experimental: as §1
# NEK3 = biological target: T29, NEK3 (Homo sapiens, UniProt P51956)
# T29 construct: purchased Millipore, Inc. (KinaseProfiler service)
# Experimental: as §1
# NEK7 = biological target: T30, NEK7 (Homo sapiens, UniProt Q8TDX7)
# T30 construct: purchased Millipore, Inc. (KinaseProfiler service)
# Experimental: as §1
# PAK5 = biological target: T31, PAK5 (Homo sapiens, UniProt Q9P286)
# T31 construct: purchased Millipore, Inc. (KinaseProfiler service)
# Experimental: as §1
# PDGFRbeta = biological target: T32, PDGFRbeta (Homo sapiens, UniProt P09619)
# T32 construct: purchased Millipore, Inc. (KinaseProfiler service)
# Experimental: as §1
# PKAC-alpha = biological target: T33, PKAC-alpha (Homo sapiens, UniProt P17612)
# T33 construct: purchased Millipore, Inc. (KinaseProfiler service)
# Experimental: as §1
# PKCbetaI = biological target: T34, PKCbetaI (Homo sapiens, UniProt P05771)
# T34 construct: purchased Millipore, Inc. (KinaseProfiler service)
# Experimental: as §1
# PKCzeta = biological target: T35, PKCzeta (Homo sapiens, UniProt Q05513)
# T35 construct: purchased Millipore, Inc. (KinaseProfiler service)
# Experimental: as §1
# PRK2 = biological target: T36, PRK2 (Homo sapiens, UniProt Q16513)
# T36 construct: purchased Millipore, Inc. (KinaseProfiler service)
# Experimental: as §1
# PTK6 = biological target: T37, PTK6 (Homo sapiens, UniProt Q13882)
# T37 construct: purchased Millipore, Inc. (KinaseProfiler service)
# Experimental: as §1
# TAO2 = biological target: T38, TAO2 (Homo sapiens, UniProt Q9UL54)
# T38 construct: purchased Millipore, Inc. (KinaseProfiler service)
# Experimental: as §1
# TLK2 = biological target: T39, TLK2 (Homo sapiens, UniProt Q86UE8)
# T39 construct: purchased Millipore, Inc. (KinaseProfiler service)
# Experimental: as §1
# TSSK2 = biological target: T40, TSSK2 (Homo sapiens, UniProt Q96PF2)
# T40 construct: purchased Millipore, Inc. (KinaseProfiler service)
# Experimental: as §1
# VRK2 = biological target: T41, VRK2 (Homo sapiens, UniProt Q86Y07)
# T41 construct: purchased Millipore, Inc. (KinaseProfiler service)
# Experimental: as §1
# T17 sequence (P54762 18-984): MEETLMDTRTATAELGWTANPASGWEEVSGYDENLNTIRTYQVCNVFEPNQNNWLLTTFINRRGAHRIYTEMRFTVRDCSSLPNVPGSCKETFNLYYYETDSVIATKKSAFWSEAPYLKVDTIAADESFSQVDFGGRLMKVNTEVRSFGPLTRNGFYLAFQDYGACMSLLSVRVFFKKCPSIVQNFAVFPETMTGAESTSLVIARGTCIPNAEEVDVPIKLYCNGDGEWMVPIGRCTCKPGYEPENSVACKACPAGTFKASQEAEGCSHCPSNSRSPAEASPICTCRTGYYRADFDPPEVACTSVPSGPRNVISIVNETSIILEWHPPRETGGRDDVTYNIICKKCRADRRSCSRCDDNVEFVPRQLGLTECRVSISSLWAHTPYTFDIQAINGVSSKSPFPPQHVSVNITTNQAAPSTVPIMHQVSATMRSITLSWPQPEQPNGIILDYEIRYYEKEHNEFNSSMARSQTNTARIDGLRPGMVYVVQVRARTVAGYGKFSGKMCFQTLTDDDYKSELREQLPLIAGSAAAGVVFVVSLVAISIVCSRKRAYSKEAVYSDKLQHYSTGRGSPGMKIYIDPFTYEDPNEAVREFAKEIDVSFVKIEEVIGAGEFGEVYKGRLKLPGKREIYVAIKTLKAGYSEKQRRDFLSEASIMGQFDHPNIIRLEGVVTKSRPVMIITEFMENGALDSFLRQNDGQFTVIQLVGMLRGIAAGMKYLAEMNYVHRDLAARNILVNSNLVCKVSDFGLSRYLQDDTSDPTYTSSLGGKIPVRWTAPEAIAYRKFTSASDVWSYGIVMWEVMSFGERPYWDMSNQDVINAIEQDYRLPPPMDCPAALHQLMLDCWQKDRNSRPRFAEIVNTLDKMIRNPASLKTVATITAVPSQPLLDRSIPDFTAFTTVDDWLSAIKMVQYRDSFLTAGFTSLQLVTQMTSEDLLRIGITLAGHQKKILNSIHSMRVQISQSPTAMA
# T11 sequence (P19784 whole entry): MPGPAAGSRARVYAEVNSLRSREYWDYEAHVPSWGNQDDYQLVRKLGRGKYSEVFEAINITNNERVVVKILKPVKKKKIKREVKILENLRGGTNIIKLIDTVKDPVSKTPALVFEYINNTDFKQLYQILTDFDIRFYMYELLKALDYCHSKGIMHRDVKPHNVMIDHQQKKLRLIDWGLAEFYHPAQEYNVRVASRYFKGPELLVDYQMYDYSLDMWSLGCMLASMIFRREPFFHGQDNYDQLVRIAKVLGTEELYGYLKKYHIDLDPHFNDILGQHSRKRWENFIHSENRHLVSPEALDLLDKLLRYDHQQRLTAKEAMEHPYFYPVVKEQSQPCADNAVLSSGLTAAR
# T8 sequence (O96017 whole entry): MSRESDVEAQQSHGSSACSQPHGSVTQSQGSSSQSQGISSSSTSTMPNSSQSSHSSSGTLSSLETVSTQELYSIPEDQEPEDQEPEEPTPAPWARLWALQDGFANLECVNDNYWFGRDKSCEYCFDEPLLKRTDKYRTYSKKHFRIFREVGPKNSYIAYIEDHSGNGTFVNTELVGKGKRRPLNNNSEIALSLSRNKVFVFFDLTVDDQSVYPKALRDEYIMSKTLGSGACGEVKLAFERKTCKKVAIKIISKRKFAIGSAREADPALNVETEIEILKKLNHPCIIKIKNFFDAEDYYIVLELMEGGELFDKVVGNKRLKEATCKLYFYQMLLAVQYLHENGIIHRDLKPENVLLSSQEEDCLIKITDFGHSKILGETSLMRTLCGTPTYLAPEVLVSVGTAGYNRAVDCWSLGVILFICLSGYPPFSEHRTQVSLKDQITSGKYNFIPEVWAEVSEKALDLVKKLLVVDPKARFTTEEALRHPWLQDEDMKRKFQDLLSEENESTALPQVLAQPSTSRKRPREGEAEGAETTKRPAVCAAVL
# T7 sequence (P50750 whole entry): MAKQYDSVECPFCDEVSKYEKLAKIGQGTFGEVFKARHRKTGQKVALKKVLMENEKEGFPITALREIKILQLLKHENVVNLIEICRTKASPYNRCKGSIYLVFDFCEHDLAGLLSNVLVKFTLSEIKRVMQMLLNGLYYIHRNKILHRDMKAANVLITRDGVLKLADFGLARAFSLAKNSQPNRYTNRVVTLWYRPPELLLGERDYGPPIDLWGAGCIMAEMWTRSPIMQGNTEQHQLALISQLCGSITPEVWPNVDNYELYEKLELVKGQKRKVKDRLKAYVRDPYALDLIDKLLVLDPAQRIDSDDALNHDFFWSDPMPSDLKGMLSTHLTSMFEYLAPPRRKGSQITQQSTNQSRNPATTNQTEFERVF
# T7 sequence (O60563 whole entry partner): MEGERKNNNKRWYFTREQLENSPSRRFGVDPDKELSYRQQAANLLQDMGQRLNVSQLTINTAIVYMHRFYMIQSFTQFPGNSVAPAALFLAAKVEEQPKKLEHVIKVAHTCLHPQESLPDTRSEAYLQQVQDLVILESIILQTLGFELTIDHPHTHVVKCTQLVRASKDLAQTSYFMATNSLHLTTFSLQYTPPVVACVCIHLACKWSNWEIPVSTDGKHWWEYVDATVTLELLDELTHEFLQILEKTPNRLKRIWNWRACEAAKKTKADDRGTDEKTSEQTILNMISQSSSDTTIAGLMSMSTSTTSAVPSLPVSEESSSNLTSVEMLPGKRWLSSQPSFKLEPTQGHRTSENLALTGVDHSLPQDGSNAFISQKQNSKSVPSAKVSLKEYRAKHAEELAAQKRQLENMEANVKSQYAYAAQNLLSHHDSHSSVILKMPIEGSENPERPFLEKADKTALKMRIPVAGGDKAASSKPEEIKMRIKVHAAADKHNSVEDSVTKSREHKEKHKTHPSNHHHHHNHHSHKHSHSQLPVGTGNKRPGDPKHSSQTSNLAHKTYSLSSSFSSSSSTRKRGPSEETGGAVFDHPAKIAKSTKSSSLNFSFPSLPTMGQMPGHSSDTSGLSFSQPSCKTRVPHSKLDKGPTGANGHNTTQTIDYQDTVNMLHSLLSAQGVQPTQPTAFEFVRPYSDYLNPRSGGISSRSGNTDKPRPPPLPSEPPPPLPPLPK
# T32 sequence (P09619 33-1106): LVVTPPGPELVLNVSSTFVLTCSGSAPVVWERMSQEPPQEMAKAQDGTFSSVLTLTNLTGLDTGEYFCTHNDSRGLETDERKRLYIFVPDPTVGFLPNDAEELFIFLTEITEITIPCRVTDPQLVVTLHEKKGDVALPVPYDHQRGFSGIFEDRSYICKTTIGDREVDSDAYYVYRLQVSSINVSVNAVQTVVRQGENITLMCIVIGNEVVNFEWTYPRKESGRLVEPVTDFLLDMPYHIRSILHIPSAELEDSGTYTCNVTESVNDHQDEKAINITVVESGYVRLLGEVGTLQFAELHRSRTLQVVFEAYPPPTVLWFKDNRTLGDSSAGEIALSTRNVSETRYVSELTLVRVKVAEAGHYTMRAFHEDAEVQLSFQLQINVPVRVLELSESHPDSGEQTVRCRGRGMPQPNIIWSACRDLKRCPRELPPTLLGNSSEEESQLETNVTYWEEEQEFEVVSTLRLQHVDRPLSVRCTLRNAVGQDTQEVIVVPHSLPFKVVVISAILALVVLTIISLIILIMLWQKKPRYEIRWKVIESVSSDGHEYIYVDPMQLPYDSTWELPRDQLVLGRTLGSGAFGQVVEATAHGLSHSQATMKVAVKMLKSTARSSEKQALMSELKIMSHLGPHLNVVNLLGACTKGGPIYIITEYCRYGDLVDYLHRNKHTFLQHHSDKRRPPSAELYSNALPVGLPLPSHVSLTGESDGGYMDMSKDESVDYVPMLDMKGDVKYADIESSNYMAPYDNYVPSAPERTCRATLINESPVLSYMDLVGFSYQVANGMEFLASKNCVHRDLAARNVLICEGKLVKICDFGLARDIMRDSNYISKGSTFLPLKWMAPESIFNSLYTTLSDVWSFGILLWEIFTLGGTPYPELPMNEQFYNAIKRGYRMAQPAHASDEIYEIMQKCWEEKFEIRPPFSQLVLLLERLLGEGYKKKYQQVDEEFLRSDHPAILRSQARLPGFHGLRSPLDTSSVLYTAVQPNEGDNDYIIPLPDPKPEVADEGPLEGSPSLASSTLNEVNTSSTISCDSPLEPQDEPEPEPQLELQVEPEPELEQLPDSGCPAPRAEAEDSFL
# T18 sequence (P21802 22-821): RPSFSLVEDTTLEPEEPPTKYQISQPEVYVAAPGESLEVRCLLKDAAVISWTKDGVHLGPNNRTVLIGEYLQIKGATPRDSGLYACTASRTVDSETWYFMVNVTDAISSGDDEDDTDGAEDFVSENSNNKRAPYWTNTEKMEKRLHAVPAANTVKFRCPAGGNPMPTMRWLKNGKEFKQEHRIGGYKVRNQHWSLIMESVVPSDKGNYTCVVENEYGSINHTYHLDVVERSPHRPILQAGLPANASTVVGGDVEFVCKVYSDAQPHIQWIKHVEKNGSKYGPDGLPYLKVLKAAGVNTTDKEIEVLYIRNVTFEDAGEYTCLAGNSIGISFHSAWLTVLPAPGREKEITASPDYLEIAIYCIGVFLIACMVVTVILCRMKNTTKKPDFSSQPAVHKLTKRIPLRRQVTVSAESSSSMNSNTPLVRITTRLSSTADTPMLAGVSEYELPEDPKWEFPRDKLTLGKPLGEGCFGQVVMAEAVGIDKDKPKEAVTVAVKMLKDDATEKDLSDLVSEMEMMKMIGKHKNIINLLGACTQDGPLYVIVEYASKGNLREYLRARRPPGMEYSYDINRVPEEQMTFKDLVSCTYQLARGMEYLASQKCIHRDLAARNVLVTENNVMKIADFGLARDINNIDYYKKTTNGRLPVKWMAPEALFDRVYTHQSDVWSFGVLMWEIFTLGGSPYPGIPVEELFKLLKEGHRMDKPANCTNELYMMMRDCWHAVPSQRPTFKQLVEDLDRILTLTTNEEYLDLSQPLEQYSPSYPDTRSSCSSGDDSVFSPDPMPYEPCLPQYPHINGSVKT
smiles,measurement,setting,value
"COCc1ccc(C2CCC2)c(CNC(=O)Nc2c(C)c(-c3cnc(C)nc3)nn2-c2ccccc2)c1 [Example 10, 1-(2-cyclobutyl-5-(methoxymethyl)benzyl)-3-(4-methyl-3-(2-methylpyrimidin-5-yl)-1-phenyl-1H-pyrazol-5-yl)urea]",Avg POC AURKA,AURKA,90 POC
same,Avg POC Axl,Axl,104.5 POC
same,Avg POC BrSK1,BrSK1,86.5 POC
same,Avg POC CAMK1,CAMK1,92 POC
same,Avg POC CAMK2b,CAMK2b,94 POC
same,Avg POC CDK6/cyclinD3,CDK6/cyclinD3,102 POC
same,Avg POC CDK9/cyclinT1,CDK9/cyclinT1,98 POC
same,Avg POC CHK2,CHK2,93 POC
same,Avg POC CK1gamma1,CK1gamma1,79 POC
same,Avg POC CK2,CK2,94.5 POC
same,Avg POC CK2alpha2,CK2alpha2,109 POC
same,Avg POC CLK2,CLK2,97.5 POC
same,Avg POC CLK3,CLK3,104.5 POC
same,Avg POC DAPK3,DAPK3,93.5 POC
same,Avg POC ERK2,ERK2,104 POC
same,Avg POC EphA4,EphA4,105.5 POC
same,Avg POC EphB1,EphB1,131 POC
same,Avg POC FGFR2,FGFR2,103.5 POC
same,Avg POC FGFR3,FGFR3,104 POC
same,Avg POC GSK3beta,GSK3beta,115 POC
same,Avg POC IR,IR,90 POC
same,Avg POC IR Activated,IR Activated,99 POC
same,Avg POC JAK2,JAK2,106.5 POC
same,Avg POC JNK1alpha1,JNK1alpha1,98 POC
same,Avg POC MAPKAP-K3,MAPKAP-K3,98.5 POC
same,Avg POC MAPKAP-K5,MAPKAP-K5,92 POC
same,Avg POC MKNK2,MKNK2,98 POC
same,Avg POC Mer,Mer,87.5 POC
same,Avg POC NEK3,NEK3,97.5 POC
same,Avg POC NEK7,NEK7,110 POC
same,Avg POC PAK5,PAK5,96.5 POC
same,Avg POC PDGFRbeta,PDGFRbeta,106 POC
same,Avg POC PKAC-alpha,PKAC-alpha,132 POC
same,Avg POC PKCbetaI,PKCbetaI,104.5 POC
same,Avg POC PKCzeta,PKCzeta,92.5 POC
same,Avg POC PRK2,PRK2,88.5 POC
same,Avg POC PTK6,PTK6,106.5 POC
same,Avg POC TAO2,TAO2,97.5 POC
same,Avg POC TLK2,TLK2,97.5 POC
same,Avg POC TSSK2,TSSK2,90 POC
same,Avg POC VRK2,VRK2,90 POC
"COCc1ccc(C(F)(F)F)c(CNC(=O)Nc2c(C)c(-c3cnn(C)c3)nn2-c2ccccc2)c1 [Example 33, 1-(1′,4-dimethyl-1-phenyl-1H,1′H-[3,4′-bipyrazol]-5-yl)-3-(5-(methoxymethyl)-2-(trifluoromethyl)benzyl)urea]",Avg POC AURKA,AURKA,112 POC
same,Avg POC Axl,Axl,117 POC
same,Avg POC BrSK1,BrSK1,119 POC
same,Avg POC CAMK1,CAMK1,111.5 POC
same,Avg POC CAMK2b,CAMK2b,96 POC
same,Avg POC CDK6/cyclinD3,CDK6/cyclinD3,108 POC
same,Avg POC CDK9/cyclinT1,CDK9/cyclinT1,108 POC
same,Avg POC CHK2,CHK2,138 POC
same,Avg POC CK1gamma1,CK1gamma1,105.5 POC
same,Avg POC CK2,CK2,94.5 POC
same,Avg POC CK2alpha2,CK2alpha2,99.5 POC
same,Avg POC CLK2,CLK2,131.5 POC
same,Avg POC CLK3,CLK3,102 POC
same,Avg POC DAPK3,DAPK3,113 POC
same,Avg POC ERK2,ERK2,117 POC
same,Avg POC EphA4,EphA4,120 POC
same,Avg POC EphB1,EphB1,133 POC
same,Avg POC FGFR2,FGFR2,109.5 POC
same,Avg POC FGFR3,FGFR3,116 POC
same,Avg POC GSK3beta,GSK3beta,136.5 POC
same,Avg POC IR,IR,68 POC
same,Avg POC IR Activated,IR Activated,103.5 POC
same,Avg POC JAK2,JAK2,130 POC
same,Avg POC JNK1alpha1,JNK1alpha1,103 POC
same,Avg POC MAPKAP-K3,MAPKAP-K3,119.5 POC
same,Avg POC MAPKAP-K5,MAPKAP-K5,97.5 POC
same,Avg POC MKNK2,MKNK2,101.5 POC
same,Avg POC Mer,Mer,96.5 POC
same,Avg POC NEK3,NEK3,115.5 POC
same,Avg POC NEK7,NEK7,116.5 POC
same,Avg POC PAK5,PAK5,144.5 POC
same,Avg POC PDGFRbeta,PDGFRbeta,166.5 POC
same,Avg POC PKAC-alpha,PKAC-alpha,139.5 POC
same,Avg POC PKCbetaI,PKCbetaI,111.5 POC
same,Avg POC PKCzeta,PKCzeta,99 POC
same,Avg POC PRK2,PRK2,106 POC
same,Avg POC PTK6,PTK6,118.5 POC
same,Avg POC TAO2,TAO2,92.5 POC
same,Avg POC TLK2,TLK2,109 POC
same,Avg POC TSSK2,TSSK2,131 POC
same,Avg POC VRK2,VRK2,90.5 POC
